In one assay the test system is Antibodies to HIV-1. It counts as binding, human. The following applies: adsorbed on latex beads, absorbance at 405 nm.
In a further assay the test system is Antibodies to HIV-2. As to the kind of experiment: EIA of dilutional series of HIV-2 positive sera. It counts as binding, human. How it is done: Alternative methods of testing immunologic cross-reactivity were also used. In one such method L5 Peptides 39 and 39GC were tested by ELISA as previously described in U.S. Pat. No. 4,629,783. Briefly, stock solutions of peptides 39 and 39-GC were prepared in 6M Gu-HCl. Working dilutions of 20 µg/ml and 6 μg/ml respectively were prepared by dilution of stock solution 0 with 0.05M carbonate/bicarbonate buffer, pH 9.5. Wells of microtiter plates were filled with 100 μl of the working dilution of the peptides and allowed to stand overnight at room temperature. Coating solution was removed and 300 μl of blocking solution supra containing 0.5M ethanolamine was added for 1 hr. at room temperature. Blocking solution was removed and the plates were used immediately or allowed to dry and stored for later use.
Plasma samples were diluted (See Table 1) in sample dilution buffer (above) and 100 μl was added to individual wells. Samples were incubated for 30 min. at 37° C., then removed and the wells were washed six times with 0.15M NaCl, 0.05% Tween 20. One hundred microliters of goat antihuman Ig-horseradish peroxidase conjugate diluted in citrate buffer, pH 7.0, 1% normal goat serum was added to each well for 30 min at 37° C. prior to washing six times as above. The ELISA assay was developed by adding 100 μl/well of substrate solution (80 μg/ml tetramethyl benzidine, 0.0015% hydrogen peroxide in citrate/phosphate buffer, pH 6.0) for 30 min. at room temperature. Reactions were stopped with the addition of 100 μl of H2SO4 per well, and the ratio of the optical density at 450 nm to 630 nm was determined by an automated ELISA reader. The cutoff value for a positive result was set at 0.225 Absorbance Units above the average absorbance obtained for three known negative samples.
The immunoreactivity of HIV-2 peptides synthesized with protected cysteine thiol groups was determined. […] EIAs were performed as described above using viral lysates of HIV-1 and HIV-2 and peptides 39GC (HIV-1) and 41-2-3GC. Reactivity was determined for dilutions of two HIV-2 positive sera, F504282, obtained from a patient in New York, and “GOM,” provided by the Institut Pasteur.
The assays were EIAs performed generally as described above with varying dilutions of HIV-2 positive serum specimens.

Procedure for Antibodies to HIV-1: Peptide 39 and its analogues were tested for immunological reactivity by a test tube assay wherein the peptides were immobilized by adsorption or covalent bonding onto latex beads.
Diluted peptide from a 4 mg/ml 6M GuHCl stock solution was added to the washed beads (25-200 μg peptide) to a final volume of 550 μl. The mixture was vigorously stirred for 30 sec. followed by less vigorous mixing overnight. Following overnight incubation 500 μl of distilled water was added and the beads were collected by centrifugation. The beads were washed with 1 ml of distilled water twice before being suspended in 100 μl of distilled water followed by the addition of 100 μl 0.5N NaOH with immediate mixing to deprotect the cysteine residues of the adsorbed peptide. Deprotection was stopped with the addition of 1 ml 0.25N HEPES, pH 7.4.
Air oxidation of the peptide/bead solution was carried out overnight at room temperature. Potassium ferricyanide was added to the peptide/bead solution to complete the oxidation. The tube was centrifuged and the beads were washed three times with 1 ml of distilled water. […]
Immunological reactivity of the peptides was detected indirectly by the alkaline phosphatase activity. […]
The beads were pelleted by centrifugation and the supernatant was measured for absorbance in a spectrophotometer at 405 nm.

For “Cys-Gly-Gly-Arg-Ile-Leu-Ala-Val-Glu-Arg-Tyr-Leu-Lys-Asp-Gln-Gln-Leu-Leu-Gly-Ile-Trp-Gly-Cys*-Ser-Gly-Lys-Leu-Ile-Cys*-NH2 [Peptide 39GC]”, the “immunological reactivity compared with Peptide 39” value in the assay with Antibodies to HIV-1 was “substantial improvement over Peptide 39”. Besides, the “Reactivity in EIA” value with Antibodies to HIV-2 (HIV-2 positive serum F504282 (A), 1:5) is reported as 0.049; in the assay with Antibodies to HIV-2 (HIV-2 positive serum F504282 (A), 1:10), 0.042; with Antibodies to HIV-2 (HIV-2 positive serum F504282 (A), 1:20), 0.037; with Antibodies to HIV-2 (HIV-2 positive serum F504282 (A), 1:40), 0.035; with Antibodies to HIV-2 (HIV-2 positive serum F504282 (A), 1:80), 0.033; in the assay with Antibodies to HIV-2 (HIV-2 positive serum F504282 (A), 1:160), 0.040. Besides, the “Reactivity in EIA” value with Antibodies to HIV-2 (HIV-2 positive serum F504282 (A), 1:320) was 0.031; with Antibodies to HIV-2 (HIV-2 positive serum F504282 (A), 1:640), 0.031; in the assay on Antibodies to HIV-2 (HIV-2 positive serum F504282 (A), 1:1280), 0.039; in the assay on Antibodies to HIV-2 (HIV-2 positive serum F504282 (A), 1:2560), 0.030; in the assay on Antibodies to HIV-2 (HIV-2 positive serum F504282 (A), Neat), 0.075; with Antibodies to HIV-2 (HIV-2 positive serum GOM (B), 1:2), 0.052. Further, the “Reactivity in EIA” value was 0.037 with Antibodies to HIV-2 (HIV-2 positive serum GOM (B), 1:4); 0.040 with Antibodies to HIV-2 (HIV-2 positive serum GOM (B), 1:8); 0.031 in the assay on Antibodies to HIV-2 (HIV-2 positive serum GOM (B), 1:16); 0.035 in the assay with Antibodies to HIV-2 (HIV-2 positive serum GOM (B), 1:32); 0.074 with Antibodies to HIV-2 (HIV-2 positive serum GOM (B), 1:64); 0.031 in the assay with Antibodies to HIV-2 (HIV-2 positive serum GOM (B), 1:128). Further, the “Reactivity in EIA” value with Antibodies to HIV-2 (HIV-2 positive serum GOM (B), 1:256) came out at 0.035; with Antibodies to HIV-2 (HIV-2 positive serum GOM (B), 1:512), 0.040; in the assay with Antibodies to HIV-2 (HIV-2 positive serum GOM (B), 1:1024) it was 0.037.

The values above are taken from patent US20030215788A1, “Cysteine thiol-protected peptides for use in immunoassays” (priority 1989, published 2003).
